{
  "source": "paper PMC11172375",
  "about": "“Preclinical Evaluation of Biodistribution and Toxicity of [^211At]PSMA-5 in Mice and Primates for the Targeted Alpha Therapy against Prostate Cancer” (International Journal of Molecular Sciences, 2024)",
  "origin": "cited, not measured here",
  "key": {"[1]": {"test_system": "metastatic castration-resistant prostate cancer", "set-up": "method as in PMID 34161051", "details": "patients with mCRPC previously treated with ARPI and taxane, VISION trial; cited from earlier work"}, "[2]": {"test_system": "metastatic castration-resistant prostate cancer", "set-up": "method as in doi:10.1200/JCO.2022.40.6_suppl.TPS211", "details": "taxane-naïve patients with mCRPC, PSMAfore trial; cited from earlier work"}, "prostate cancer": {"test_system": "prostate cancer", "set-up": "method as in PMID 27390158, PMID 38218192, PMID 33293081, PMID 33008928, PMID 37247612", "details": "patients resistant to beta therapy with [177Lu]PSMA-617; cited from earlier work"}, "[3]": {"details": "cited from earlier work"}, "[4]": {"set-up": "method as in PMID 27230930", "details": "mice treated with 1.5MBq (75MBq/kg); cited from earlier work"}},
  "data": [
    {"smiles": "O=C([O-])CN1CCN(CC(=O)[O-])CCN(CC(=O)NCC2CCC(C(=O)N[C@@H](Cc3ccc4ccccc4c3)C(=O)NCCCC[C@H](NC(=O)N[C@@H](CCC(=O)O)C(=O)O)C(=O)O)CC2)CCN(CC(=O)[O-])CC1.[177Lu+3]", "note": "(stereo partly drawn) [[^177Lu]PSMA-617]", "values": [
      {"measurement": "overall survival compared to the standard of care", "setting": "[1]", "result": "significantly extended overall survival"},
      {"measurement": "radiographic progression-free survival compared to ARPI changes", "setting": "[2]", "result": "prolong radiographic progression-free survival"}
    ]},
    {"smiles": "O=C([O-])CC[C@H](NC(=O)N[C@@H](CCCCNC(=O)[C@H](Cc1ccc2ccccc2c1)NC(=O)C1CCC(CNC(=O)CN2CCN(CC(=O)[O-])CCN(CC(=O)[O-])CCN(CC(=O)[O-])CC2)CC1)C(=O)[O-])C(=O)[O-].[225Ac].[H+].[H+].[H+]", "note": "(stereo partly drawn) [[^225Ac]PSMA-617]", "values": [
      {"measurement": "efficacy of alpha therapy", "setting": "prostate cancer", "result": "proven effective"}
    ]},
    {"smiles": "[211At-].[Na+]", "note": "[[^211At]NaAt]", "values": [
      {"measurement": "uptake in the thyroid", "setting": "[3]; 3 h post-administration", "result": 509, "unit": "%ID/g"},
      {"measurement": "thyroid histology", "setting": "[3]; even in low-dose groups (5 MBq/kg)", "result": "thyroid ablation effects"}
    ]},
    {"smiles": "O=C(O)CC[C@H](NC(=O)NC(CCCCNC(=O)c1ccc([211At])cc1)C(=O)O)C(=O)O", "note": "(stereo partly drawn) [^211At-6, (2S)-2-(3-(1-Carboxy-5-(4-211At-Astatobenzamido)Pentyl)Ureido)-Pentanedioic Acid]", "values": [
      {"measurement": "kidney toxicity", "setting": "[4]", "result": "late nephropathy with loss of the proximal tubules"}
    ]}
  ]
}
